Results on 3 compounds are retold here after patent US20170327455A1, “Omefibrates for Treating Dyslipidemia and Cardiovascular Disease” (Jiva Pharma, Inc., priority 2014, published 2017).

In one assay the target is T1, PPARα (Homo sapiens, UniProt Q07869).
T1 construct: expressed in transfected cells
T1 sequence (Q07869 239-466 limits assumed): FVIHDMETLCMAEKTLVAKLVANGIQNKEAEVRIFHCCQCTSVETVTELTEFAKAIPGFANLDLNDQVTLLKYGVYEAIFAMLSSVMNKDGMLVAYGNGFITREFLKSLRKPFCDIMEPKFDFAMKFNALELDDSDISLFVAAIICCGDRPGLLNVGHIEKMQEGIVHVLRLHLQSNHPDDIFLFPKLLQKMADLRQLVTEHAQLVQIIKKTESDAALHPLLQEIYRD
The assay is described as follows: PPARα agonist assay: GAL4-PPAR ligand-binding domain luciferase reporter in live cells. It is filed as cell-based. Conditions: FIG. 1; for activation of PPARα transcriptional activity (normalized luciferase activity): GAL4-regulated luciferase reporter, live cells. Here is the method:
The activity of JIVA-0018, JIVA-0019 and JIVA-0020 was determined in a PPARα-dependent transcription assay. This assay was carried out in live cells treated with these above compounds, and provides a direct measurement of a compound's ability to activate PPARα. This PPARα activity assay is a standard nuclear receptor ligand activity assay that utilizes the ligand-binding domain of the PPAR receptor fused to a heterologous GAL4 DNA binding domain. The transcriptional read-out is from a GAL4-regulated luciferase reporter. In this assay, compounds that activate the receptor cause an increase in luciferase activity measured in a luminometer.

The target in a further assay is T2, PPARδ (Homo sapiens, UniProt Q03181).
T2 construct: expressed in transfected cells
T2 sequence (Q03181 211-439 limits assumed): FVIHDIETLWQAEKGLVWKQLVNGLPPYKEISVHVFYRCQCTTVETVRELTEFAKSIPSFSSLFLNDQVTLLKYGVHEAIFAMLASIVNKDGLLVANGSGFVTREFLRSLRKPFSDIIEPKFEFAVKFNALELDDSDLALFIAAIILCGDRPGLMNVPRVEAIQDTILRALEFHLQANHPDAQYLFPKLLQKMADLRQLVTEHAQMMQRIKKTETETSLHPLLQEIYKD
Nature of the assay: PPARδ Agonist Assay (luciferase reporter). It is filed as cell-based. Conditions: FIG. 2. For orientation: In a reporter assay the amount or activity of a reporter protein is the signal.

pEC50: −log10 of the molar value. “Also recorded” adds a separate entry of the source.

In the case of DHA Fibrate [JIVA-0020], the “activation of PPARα transcriptional activity (normalized luciferase activity)” value (“activation … (normalized luciferase activity)” for short) at PPARα is “neither the EPA-fibrate, JIVA-0018 nor the DHA-fibrate, JIVA-0020 stimulated PPARα activity”. The pEC50 (usually −log10 of the EC50, conventionally taken in molar units) at PPARα (estimated from the data, read-out: EC50 for activation of PPARα) was under 4.70.
Take `CC/C=C\C/C=C\C/C=C\C/C=C\C/C=C\CCCCC(C)(C)C(=O)O` [JIVA-0018, EPA Fibrate or EPA-Fibric Acid]: on PPARα, the “activation … (normalized luciferase activity)” value is recorded as “neither the EPA-fibrate, JIVA-0018 nor the DHA-fibrate, JIVA-0020 stimulated PPARα activity; also recorded: at the base line”. The “activity on PPARδ (normalized luciferase activity)” value on PPARδ is listed as “at the base line”.
For `CC/C=C\C/C=C\C/C=C\CCCCCCCCC(C)(C)C(=O)O` [JIVA-0019, ALA Fibrate], at PPARα, the “activation … (normalized luciferase activity)” value was “strongly activated PPARα; also recorded: potent and selective activator of PPARα”. In addition, the “activity on PPARδ (normalized luciferase activity)” value at PPARδ is “at the base line”.
